In publication PMC11054271, “ABCG2 Transports the Flukicide Nitroxynil and Affects Its Biodistribution and Secretion into Milk” (Pharmaceutics, 2024):
Where two headings read alike, the source gives them in different places.

Columns and labels:
murine Abcg2 [1] = assay: Tissue distribution in wild-type and Abcg2−/− male mice; type: in vivo; settings: 10 mg/kg s.c.
Protocol: (§1) All in vivo experiments were carried out using wild-type and Abcg2^−/− mice aged between 8 and 17 weeks, all of >99% FVB/N genetic background, generated and gently supplied by A. H. Schinkel (Netherlands Cancer Institute). Mice were housed and handled complying with institutional and ARRIVE guidelines and European legislation (EU Directive 2010/63/EU for animal experiments). Additionally, experimental procedures were approved by the Animal Care and Use Committee of the University of León and the Junta de Castilla y León (ULE_011_2019).
(§2) For pharmacokinetic experiments, a single dose of nitroxynil at 10 mg/kg was administered subcutaneously to wild-type and Abcg2^−/− male mice (n = 4–5, for each time point). Distomicide® (250 mg/mL) commercial solution was dissolved in saline (sodium chloride 0.9%) and dosed at 200 μL per 30 g body weight. Blood samples were collected at different time points (0.5, 3, 4.5, 6, 24, 48 and 96 h) and heparinized blood samples were centrifugated for 15 min at 3000× g. Organs were also collected at 24 and 96 h after euthanasia. Linear trapezoidal rule was used to calculate the area under the plasma concentration–time curve (AUC) parameter.
(§3) Plasma, milk and tissue samples from each animal were individually processed and analyzed without pooling, while samples from transport assays were not processed. Tissue samples were homogenized in a mixture of 50% water/50% methanol HCl 0.5% (v/v); 1 mL solution per 0.1 g tissue. The entire amount of collected milk (74.7–295.1 mg) and 100 μL plasma and tissue homogenates were processed. To each sample, 10 μL of a nitrofurantoin solution (10 μg/mL for plasma and milk and 2 μg/mL for homogenized tissues) was added as an internal standard and 150 μL acetonitrile was used to precipitate the proteins. The mixture was vortexed horizontally for 15 min and centrifugated at 10,000× g for 5 min at 4 °C. Supernatant was transferred to a new tube and dried at 40 °C under N2 stream. Samples were reconstituted in 100 μL of mobile phase and 50 μL was injected into HPLC. Standards were subjected to the same procedures as samples.
(§4) Waters 2695 separation module and Waters 2998 UV photodiode array detector set at 270 nm were used for samples analysis. Chromatographic conditions for nitroxynil detection were based on previously described methods, with minor modifications. Chromatographic separation was achieved on a reverse-phase column (Synergy 4 μm Hydro–RP 80 Å, 250 × 4.60 mm; Phenomenex®, Torrance, CA, USA) using an isocratic binary mobile phase consisting of 25 mM potassium phosphate monobasic (KH2PO4), pH 4: acetonitrile (70:30 for culture samples and 80:20 for animal samples) at a flow rate of 1 mL/min. Autosampler and column temperature were 4 °C and 40 °C, respectively. Limit of detection (LOD) and quantification (LOQ) were calculated as previously described. For cell culture samples, LOD and LOQ were 0.003 μg/mL and 0.007 μg/mL, respectively. For in vivo samples, LOD was in the range of 0.01–0.07 μg/mL and LOQ in the range of 0.03–0.15 μg/mL.

murine Abcg2 [2] = test system: T1, murine Abcg2; assay: as above; type: in vivo; settings: FVB/N, mouse, sc, wild-type male mice, 10 mg/kg s.c.
T1 construct: from tissue; host or cells: whole animal: wild-type vs Abcg2-/- mice, >99% FVB/N background
Protocol: as §1, §2, §3, §4

[3] = set-up: method as in PMID 21657788; settings: cited from earlier work
murine Abcg2 [4] = molecular target: T2, murine Abcg2 (Mus musculus, UniProt Q7TMS5); assay: Plasma pharmacokinetics in wild-type and Abcg2−/− male mice; type: in vivo; set-up: from tissue; host or cells: whole animal: wild-type vs Abcg2-/- mice, >99% FVB/N background; settings: 10 mg/kg s.c.
T2 sequence (Q7TMS5 1-657): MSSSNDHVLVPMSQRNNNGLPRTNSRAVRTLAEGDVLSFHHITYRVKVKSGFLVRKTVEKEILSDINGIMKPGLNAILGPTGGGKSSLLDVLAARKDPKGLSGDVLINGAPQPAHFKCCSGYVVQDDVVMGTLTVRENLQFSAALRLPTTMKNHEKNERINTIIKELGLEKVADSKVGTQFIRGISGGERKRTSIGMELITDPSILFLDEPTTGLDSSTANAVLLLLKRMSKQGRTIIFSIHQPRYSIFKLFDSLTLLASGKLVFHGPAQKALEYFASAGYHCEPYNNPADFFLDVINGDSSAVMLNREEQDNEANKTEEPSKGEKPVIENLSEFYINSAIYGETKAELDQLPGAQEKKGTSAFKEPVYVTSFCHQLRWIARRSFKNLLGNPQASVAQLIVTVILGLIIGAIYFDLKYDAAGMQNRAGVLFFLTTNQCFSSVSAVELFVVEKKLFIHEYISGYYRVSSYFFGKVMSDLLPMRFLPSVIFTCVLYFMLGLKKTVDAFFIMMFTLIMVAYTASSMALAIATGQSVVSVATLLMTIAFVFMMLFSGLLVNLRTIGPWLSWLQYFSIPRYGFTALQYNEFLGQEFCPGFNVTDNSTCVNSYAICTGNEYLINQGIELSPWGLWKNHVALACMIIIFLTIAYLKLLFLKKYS
Protocol: as §1
as §2, with “Organs were also collected at 24 and 96 h after euthanasia. Linear trapezoidal rule was used to calculate the area under the plasma concentration–time curve (AUC) parameter.” left out
Plasma, milk and tissue samples from each animal were individually processed and analyzed without pooling, while samples from transport assays were not processed. […]
Waters 2695 separation module and Waters 2998 UV photodiode array detector set at 270 nm were used for samples analysis. […] Limit of detection (LOD) and quantification (LOQ) were calculated as previously described. […]

Tissue concentration, spleen (murine Abcg2 [1]; Abcg2−/− male mice, 96 h): <LOQ
Kp at 96 h (murine Abcg2 [1]; FVB/N, mouse, kidney and plasma, sc, Abcg2−/− male mice, 96 h, read-out: Tissue/plasma ratio, kidney): 0.03 ± 0.01
concentration at 24 h (murine Abcg2 [1]; FVB/N, mouse, kidney, sc, Abcg2−/− male mice, read-out: Tissue concentration, kidney): 8200 ± 1800 ng/g
concentration at 96 h (murine Abcg2 [1]; FVB/N, mouse, kidney, sc, Abcg2−/− male mice, 96 h, read-out: Tissue concentration, kidney): 3500 ± 300 ng/g
concentration at 24 h (murine Abcg2 [1]; FVB/N, mouse, liver, sc, Abcg2−/− male mice, read-out: Tissue concentration, liver): 1300 ± 300 ng/g
concentration at 96 h (murine Abcg2 [1]; FVB/N, mouse, liver, sc, Abcg2−/− male mice, 96 h, read-out: Tissue concentration, liver): 700 ± 200 ng/g
concentration at 24 h (murine Abcg2 [1]; FVB/N, mouse, small intestine, sc, Abcg2−/− male mice, read-out: Levels of nitroxynil in small intestine): 1600 ± 300 ng/mL
concentration at 24 h (murine Abcg2 [1]; FVB/N, mouse, small intestine, sc, Abcg2−/− male mice, read-out: Tissue concentration, small intestine): 1600 ± 300 ng/g
concentration at 96 h (murine Abcg2 [1]; FVB/N, mouse, small intestine, sc, Abcg2−/− male mice, 96 h, read-out: Tissue concentration, small intestine): 500 ± 100 ng/g
concentration at 24 h (murine Abcg2 [1]; FVB/N, mouse, spleen, sc, Abcg2−/− male mice, read-out: Accumulation in spleen): 2500 ± 300 ng/mL
concentration at 24 h (murine Abcg2 [1]; FVB/N, mouse, spleen, sc, Abcg2−/− male mice, read-out: Tissue concentration, spleen): 2500 ± 300 ng/g
concentration at 24 h (murine Abcg2 [1]; FVB/N, mouse, testis, sc, Abcg2−/− male mice, read-out: Concentration in testis): 4200 ± 800 ng/mL
concentration at 24 h (murine Abcg2 [1]; FVB/N, mouse, testis, sc, Abcg2−/− male mice, read-out: Tissue concentration, testis): 4200 ± 800 ng/g
concentration at 96 h (murine Abcg2 [1]; FVB/N, mouse, testis, sc, Abcg2−/− male mice, 96 h, read-out: Tissue concentration, testis): 1100 ± 200 ng/g
Brain levels (murine Abcg2 [1]; wild-type and Abcg2−/− male mice, 24 and 96 h, almost all samples): below LOQ
Kp at 96 h (murine Abcg2 [2]; kidney and plasma, 96 h, read-out: Tissue/plasma ratio, kidney): 0.06 ± 0.01
concentration at 24 h (murine Abcg2 [2]; kidney, read-out: Tissue concentration, kidney): 5900 ± 1200 ng/g
concentration at 96 h (murine Abcg2 [2]; kidney, 96 h): 900 ± 100 ng/g
concentration at 24 h (murine Abcg2 [2]; liver, read-out: Tissue concentration, liver): 900 ± 300 ng/g
concentration at 24 h (murine Abcg2 [2]; small intestine, read-out: Levels of nitroxynil in small intestine): 1100 ± 200 ng/mL
concentration at 24 h (murine Abcg2 [2]; small intestine, read-out: Tissue concentration, small intestine): 1100 ± 200 ng/g
concentration at 24 h (murine Abcg2 [2]; spleen, read-out: Accumulation in spleen): 1400 ± 300 ng/mL
concentration at 24 h (murine Abcg2 [2]; spleen, read-out: Tissue concentration, spleen): 1400 ± 300 ng/g
concentration at 24 h (murine Abcg2 [2]; testis, read-out: Concentration in testis): 2600 ± 200 ng/mL
concentration at 24 h (murine Abcg2 [2]; testis, read-out: Tissue concentration, testis): 2600 ± 200 ng/g
AUC (murine Abcg2 [4]; FVB/N, mouse, plasma, sc, wild-type male mice, 0.5-96 h): 1920 ± 49.1 µg·h/mL
Plasma AUC, fold higher in Abcg2−/− compared with wild-type (murine Abcg2 [4]; male mice): 1.8 fold
SMILES: N#Cc1cc(I)c(O)c([N+](=O)[O-])c1 [nitroxynil]
Time after treatment at which residues have been found in milk [3]: up to 58 days
